Read-outs that look alike come from different tables or passages of the source.
Tests used:
Assay type in all cases: biochemical
SHP2 = target: T1, SHP2 (Homo sapiens, UniProt Q06124); assay: SHP2 phosphatase inhibition assay (pNPP); conditions: read-out: IC50 SHP2
T1 sequence (Q06124 224-528): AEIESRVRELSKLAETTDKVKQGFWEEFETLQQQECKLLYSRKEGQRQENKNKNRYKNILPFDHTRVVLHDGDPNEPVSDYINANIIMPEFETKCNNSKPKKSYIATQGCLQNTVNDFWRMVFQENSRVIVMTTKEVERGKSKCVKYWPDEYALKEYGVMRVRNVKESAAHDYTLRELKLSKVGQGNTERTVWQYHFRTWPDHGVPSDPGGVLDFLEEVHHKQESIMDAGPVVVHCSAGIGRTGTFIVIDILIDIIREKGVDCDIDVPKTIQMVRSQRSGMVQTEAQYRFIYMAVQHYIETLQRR

HePTP = target: T2, HePTP (Homo sapiens, UniProt P35236); assay: PTP inhibition assay (pNPP); conditions: […]; HePTP
T2 sequence (P35236 1-360): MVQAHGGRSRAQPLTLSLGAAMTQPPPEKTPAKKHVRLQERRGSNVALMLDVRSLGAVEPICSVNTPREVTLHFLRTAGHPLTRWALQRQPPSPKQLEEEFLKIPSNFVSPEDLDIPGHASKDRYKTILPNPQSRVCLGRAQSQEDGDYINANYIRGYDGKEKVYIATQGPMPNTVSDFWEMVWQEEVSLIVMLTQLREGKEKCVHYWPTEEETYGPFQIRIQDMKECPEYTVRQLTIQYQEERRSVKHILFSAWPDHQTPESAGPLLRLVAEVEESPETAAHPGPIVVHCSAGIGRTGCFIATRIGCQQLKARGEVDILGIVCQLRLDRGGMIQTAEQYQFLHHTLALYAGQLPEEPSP

LYP = target: T3, LYP (Homo sapiens, UniProt Q9Y2R2); assay: PTP inhibition assay (pNPP); conditions: […]; LYP
T3 sequence (Q9Y2R2 1-807): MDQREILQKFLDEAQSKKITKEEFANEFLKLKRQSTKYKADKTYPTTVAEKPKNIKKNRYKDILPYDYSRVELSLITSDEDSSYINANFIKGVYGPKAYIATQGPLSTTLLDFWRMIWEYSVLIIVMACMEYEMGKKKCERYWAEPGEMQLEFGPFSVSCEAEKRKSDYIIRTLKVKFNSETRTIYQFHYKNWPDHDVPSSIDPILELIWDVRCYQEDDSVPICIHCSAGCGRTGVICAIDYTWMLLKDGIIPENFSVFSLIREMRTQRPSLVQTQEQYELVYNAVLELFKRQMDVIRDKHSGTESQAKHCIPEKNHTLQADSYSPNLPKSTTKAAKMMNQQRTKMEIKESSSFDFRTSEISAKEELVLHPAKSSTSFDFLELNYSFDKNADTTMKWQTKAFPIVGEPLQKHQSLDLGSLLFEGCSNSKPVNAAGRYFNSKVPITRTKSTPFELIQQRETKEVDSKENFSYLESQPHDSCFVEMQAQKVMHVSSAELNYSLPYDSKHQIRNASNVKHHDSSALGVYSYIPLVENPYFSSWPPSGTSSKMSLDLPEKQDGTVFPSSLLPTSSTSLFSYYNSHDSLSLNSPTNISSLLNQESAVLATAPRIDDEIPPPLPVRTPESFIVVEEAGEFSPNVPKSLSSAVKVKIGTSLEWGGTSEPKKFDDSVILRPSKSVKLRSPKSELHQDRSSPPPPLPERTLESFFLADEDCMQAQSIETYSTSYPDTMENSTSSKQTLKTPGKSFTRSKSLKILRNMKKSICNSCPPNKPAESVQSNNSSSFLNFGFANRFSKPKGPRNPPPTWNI

LMWPTP = target: T4, LMWPTP (Homo sapiens, UniProt P24666); assay: PTP inhibition assay (pNPP)
T4 sequence (P24666 1-158): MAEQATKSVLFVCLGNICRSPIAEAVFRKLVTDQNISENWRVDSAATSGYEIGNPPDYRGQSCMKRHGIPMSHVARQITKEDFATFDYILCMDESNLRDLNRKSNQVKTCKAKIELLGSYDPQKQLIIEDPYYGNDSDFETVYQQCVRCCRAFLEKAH

[1] = Example 9: SHP2 catalytic domain 20 nM, pNPP 3 mM, pH 7.0, 25° C.

Structure (SMILES) | IC50 (SHP2; pNPP at Km, pH 7.0, 25° C.) [µM] | IC50 (HePTP) [µM] | IC50 (SHP2; […], SHP2) [µM] | other results
O=C(Nc1ccc(NC(=O)C(c2ccccc2)S(=O)(=O)O)cc1)c1ccc(-c2ccc(Cl)cc2Cl)o1 (centres unmarked) [Compound L319-04-B34] | 7.9 |  |  | 
O=C(Nc1ccc(CNC(=O)C(c2ccccc2)S(=O)(=O)O)cc1)C(=O)Nc1ccc(-c2cccs2)cc1 (centres unmarked) [Compound L319-24-M74] | 1.34 |  |  | 
CC(C)c1ccc(NC(=O)C(=O)Nc2ccc(NC(=O)C(c3ccccc3)S(=O)(=O)O)cc2)cc1 (centres unmarked) [Compound L319-20-N25] | 2.3 |  |  | 
O=C(C(c1ccc(-c2ccccc2)cc1)S(=O)(=O)O)N1CCc2cc(Br)ccc21 (centres unmarked) [Compound L319-16-M93] |  | 7.6 | 16 | IC50 (LYP): 16 µM; IC50 (LMWPTP; […], LMWPTP): 24 µM
O=C(O)C(=O)NCc1ccc(NC(=O)C(c2ccccc2)S(=O)(=O)O)cc1 (centres unmarked) [Lib-3, 2-oxo-2-((4-(2-phenyl-2-sulfoacetamido)benzyl)amino)acetic acid] |  |  |  | IC50 (SHP2; [1]): > 50 µM
O=C(Nc1ccc(N2CCOCC2)cc1)C(c1ccccc1Cl)S(=O)(=O)O (centres unmarked) [Compound L319-07-M68] |  | 11 | > 100 | IC50 (LYP): > 100 µM; IC50 (LMWPTP; […], LMWPTP): > 100 µM
O=C(N1CCC(c2ccc(Cl)c(Cl)c2)CC1)C(Br)(c1ccccc1)S(=O)(=O)O (centres unmarked) [Compound L319-Br1-N47] |  | 26 | 22.8 | 
O=C(NNc1ccccc1)C(c1ccc(-c2ccccc2)cc1)S(=O)(=O)O (centres unmarked) [Compound L319-16-N58] |  | 20 | 22 | IC50 (LYP): 20 µM; IC50 (LMWPTP; […], LMWPTP): 32 µM
Cc1ccc(C(C(=O)Nc2ccc(N3CCOCC3)cc2)S(=O)(=O)O)cc1 (centres unmarked) [Compound L319-11-M68] |  | 3.2 | > 100 | IC50 (LYP): 7.6 µM; IC50 (LMWPTP; […], LMWPTP): > 100 µM
O=C(NCc1ccc(NC(=O)C(c2ccccc2)S(=O)(=O)O)cc1)C(=O)Nc1ccc(-c2cccs2)cc1 (centres unmarked) [Compound L319-23-M74] | 3.5 |  |  | 
O=C(Nc1cccc(Cc2ccccc2)c1)C(=O)Nc1cccc(NC(=O)C(c2ccccc2)S(=O)(=O)O)c1 (centres unmarked) [Compound L319-22-M51] | 10 |  |  | 
O=C(Nc1ccc(NC(=O)C(c2ccccc2)S(=O)(=O)O)cc1)C(=O)Nc1ccc(-c2cccs2)cc1 (centres unmarked) [Compound L319-20-M74] | 0.9 |  |  | 
O=C(O)C(=O)Nc1cccc(NC(=O)C(c2ccccc2)S(=O)(=O)O)c1 (centres unmarked) [Lib-2, 2-oxo-2-((3-(2-phenyl-2-sulfoacetamido)phenyl)amino)acetic acid] |  |  |  | IC50 (SHP2; [1]): > 50 µM
O=C(Nc1ccc(I)cc1)C(=O)Nc1ccc(NC(=O)C(c2ccccc2)S(=O)(=O)O)cc1 (centres unmarked) [Compound L319-20-M24] | 1.5 |  |  | 
O=C(Nc1nc2ccccc2s1)C(Br)(c1ccccc1)S(=O)(=O)O (centres unmarked) [Compound L319-Br1-N15] |  | 0.2 | 13.2 | 
Cc1c(Br)cc(NC(=O)C(=O)Nc2cccc(NC(=O)C(c3ccccc3)S(=O)(=O)O)c2)cc1Br (centres unmarked) [Compound L319-22-M34] | 5.7 |  |  | 
O=C(Nc1cccc(NC(=O)C(c2ccccc2)S(=O)(=O)O)c1)C(=O)Nc1ccc(OCc2ccccc2)c(Cl)c1 (centres unmarked) [Compound L319-22-M50] | 7.5 |  |  | 
O=C(CP(=O)(O)O)Nc1nc2ccccc2s1 [Compound L338N15] |  |  |  | IC50 (LMWPTP; pNPP at Km, pH 7.0, 25° C.): 30 µM
